Measured values: paper PMC12446476 (Nature Communications, 2025)
In brackets after ≈: the same amount, converted by molar mass. Several values for one entry are separate records, joined by “and”; a condition that tells them apart may be missing. Identical values can stand only once. Like-named read-outs stand apart in the source and are kept apart here.

Key:
[1] = tested on: intracellular N. gonorrhoeae; assay: Intracellular killing in HeLa229 cells; type: cell-based, Neisseria gonorrhoeae; settings: dilution 0, replicates 1-3, counts 1-2
Experimental: Intracellular killing was assessed within HeLa229 cells (European Collection of Authenticated Cell Cultures, London, UK) that were seeded at ~3 × 10^5 cells/mL and grown to 70–80% confluence in RPMI-glutamine media supplemented with 10% (v/v) heat-inactivated fetal bovine serum (FBS, Gibco, MA, USA). Cells were incubated at 37 °C with 5% CO2 for 24 h, then washed with serum-free RPMI-1640 prior to infection. N. gonorrhoeae was scraped from agar plates and resuspended in Dulbecco’s Phosphate Buffered Saline (DPBS, Sigma-Aldrich), pelleted, then resuspended in RPMI with 2% FBS. Bacterial suspensions were used to infect HeLa229 cells at a multiplicity of infection of 100:1. Plates were briefly centrifuged (500 × g for 5 min), then incubated for one hour. This incubation and all subsequent incubations were performed at 37 °C with 5% CO2. Non-adherent cells were removed by washing with serum-free RPMI, and the remaining extracellular bacteria were killed via resuspension in RPMI-glutamine supplemented with 2% FBS and 200 μg/mL gentamycin and incubation for one hour. […] Azithromycin-treated samples were included for control/comparison. […] Samples were diluted and plated onto chocolate II agar for viable bacteria quantification. Intracellular killing assays were performed at Microbiologics, Kalamazoo, MI, USA, using a method adapted from previous studies[68],[69].

[2] = tested on: Salmonella typhimurium (TA1535, TA1537, TA98 and TA100); type: cell-based
Experimental: (§1) Ames assays were performed using four strains of Salmonella typhimurium (TA1535, TA1537, TA98 and TA100) and a single strain of E. coli (WRP2 uvrA) in the presence and absence of S9 tissue homogenate. Dose levels (µg/plate) up to 4000 were assessed for WP2 uvrA and TA98, 500 for TA1535, 250 for TA1537 and 62.5 for TA100.

E. coli WP2 uvrA = assay: Ames assay, E. coli strain; type: cell-based; settings: with S9, positive control 1, 2 or 20 µg/plate
Experimental: as §1

N. gonorrhoeae = assay: MIC determination, agar dilution (CLSI); type: cell-based, Neisseria gonorrhoeae
Source text: The 2024 WHO N. gonorrhoeae reference strains were used for quality control. Only whole MIC doubling dilutions are reported. Clinical breakpoints or the epidemiological cutoff (ECOFF, to indicate azithromycin resistance) from EUCAST (v14.0, https://www.eucast.org/clinical_breakpoints) were used to classify isolates as antimicrobial susceptible or resistant. […] Two times the standard inoculum defined by CLSI was used to establish consistent growth in untreated control samples for some strains. In vitro time-kill assays were performed according to CLSI guidelines[65] using Columbia Broth (BD Difco) supplemented with 1% IsoVitaleX Enrichment (BD). Viable bacterial counts were generated by plating 10-fold serially diluted samples on GC agar plates containing 1% IsoVitaleX Enrichment (BD).

[3] = TA1537, without S9, positive control 50 µg/plate
[4] = TA98, with S9, positive control 1, 2 or 20 µg/plate
[5] = TA100, with S9, positive control 1, 2 or 20 µg/plate
[6] = TA1535, with S9, positive control 1, 2 or 20 µg/plate
[7] = TA1537, with S9, positive control 1, 2 or 20 µg/plate
[8] = screening panel N. gonorrhoeae isolate A
[9] = screening panel N. gonorrhoeae isolate B
[10] = screening panel N. gonorrhoeae isolate C
[11] = screening panel N. gonorrhoeae isolate D
[12] = screening panel N. gonorrhoeae isolate E
[13] = screening panel N. gonorrhoeae isolate F
[14] = screening panel N. gonorrhoeae isolate G
[15] = screening panel N. gonorrhoeae isolate H
[16] = screening panel N. gonorrhoeae isolate I
[17] = screening panel N. gonorrhoeae isolate J
[18] = screening panel N. gonorrhoeae isolate K
[19] = screening panel N. gonorrhoeae isolate L
[20] = screening panel N. gonorrhoeae isolate M
[21] = screening panel N. gonorrhoeae isolate N
[22] = TA98, without S9, positive control 2 µg/plate
[23] = TA100, without S9, positive control 1 µg/plate
[24] = TA1535, without S9, positive control 1 µg/plate

| SMILES | Minimum inhibitory concentration (N. gonorrhoeae; [8]) [µg/mL] | Minimum inhibitory concentration (N. gonorrhoeae; [9]) [µg/mL] | Minimum inhibitory concentration (N. gonorrhoeae; [10]) [µg/mL] | Minimum inhibitory concentration (N. gonorrhoeae; [11]) [µg/mL] | Minimum inhibitory concentration (N. gonorrhoeae; [12]) [µg/mL] | Minimum inhibitory concentration (N. gonorrhoeae; [13]) [µg/mL] | Minimum inhibitory concentration (N. gonorrhoeae; [14]) [µg/mL] | Minimum inhibitory concentration (N. gonorrhoeae; [15]) [µg/mL] | Minimum inhibitory concentration (N. gonorrhoeae; [16]) [µg/mL] | Minimum inhibitory concentration (N. gonorrhoeae; [17]) [µg/mL] | Minimum inhibitory concentration (N. gonorrhoeae; [18]) [µg/mL] | Minimum inhibitory concentration (N. gonorrhoeae; [19]) [µg/mL] | Minimum inhibitory concentration (N. gonorrhoeae; [20]) [µg/mL] | Minimum inhibitory concentration (N. gonorrhoeae; [21]) [µg/mL] | further results |
| --- | --- | --- | --- | --- | --- | --- | --- | --- | --- | --- | --- | --- | --- | --- | --- |
| CC[C@H]1OC(=O)[C@H](C)[C@@H](O[C@H]2C[C@@](C)(OC)[C@@H](O)[C@H](C)O2)[C@H](C)[C@@H](O[C@@H]2O[C@H](C)C[C@H](N(C)C)[C@H]2O)[C@](C)(O)C[C@@H](C)CN(C)[C@H](C)[C@@H](O)[C@]1(C)O [Azithryomycin] | – | – | – | – | – | – | – | – | – | – | – | – | – | – | Colony forming units (CFU) of N. gonorrhoeae internalised in HeLa229 cells, colony count ([1]; isolate ATCC 49226, 3 hr, 2X MIC): 19 CFU (2×) and 22 CFU and 27 CFU and 29 CFU and 32 CFU; Colony forming units (CFU) of N. gonorrhoeae internalised in HeLa229 cells, colony count ([1]; isolate ATCC 49226, 3 hr, 4X MIC): 28 CFU and 29 CFU and 24 CFU (2×) and 32 CFU and 22 CFU; Colony forming units (CFU) of N. gonorrhoeae internalised in HeLa229 cells, colony count ([1]; isolate ATCC 49226, 3 hr, 8X MIC): 20 CFU and 26 CFU and 27 CFU and 18 CFU and 28 CFU and 17 CFU; Colony forming units (CFU) of N. gonorrhoeae internalised in HeLa229 cells, colony count ([1]; isolate ATCC 49226, 6 hr, 2X MIC): 1 CFU (3×) and 3 CFU and 2 CFU (2×); Colony forming units (CFU) of N. gonorrhoeae internalised in HeLa229 cells, colony count ([1]; isolate ATCC 49226, 6 hr, 4X MIC): 0 CFU (2×) and 1 CFU and 3 CFU (2×) and 5 CFU; Colony forming units (CFU) of N. gonorrhoeae internalised in HeLa229 cells, colony count ([1]; isolate ATCC 49226, 6 hr, 8X MIC): 1 CFU (3×) and 2 CFU (3×); Colony forming units (CFU) of N. gonorrhoeae internalised in HeLa229 cells, colony count ([1]; isolate ATCC 49226, 10 hr, 2X MIC): 0 CFU; Colony forming units (CFU) of N. gonorrhoeae internalised in HeLa229 cells, colony count ([1]; isolate ATCC 49226, 10 hr, 4X MIC): 0 CFU; Colony forming units (CFU) of N. gonorrhoeae internalised in HeLa229 cells, colony count ([1]; isolate ATCC 49226, 10 hr, 8X MIC): 0 CFU; Colony forming units (CFU) of N. gonorrhoeae internalised in HeLa229 cells, colony count ([1]; isolate ATCC 49226, 24 hr, 2X MIC): 0 CFU; Colony forming units (CFU) of N. gonorrhoeae internalised in HeLa229 cells, colony count ([1]; isolate ATCC 49226, 24 hr, 4X MIC): 0 CFU; Colony forming units (CFU) of N. gonorrhoeae internalised in HeLa229 cells, colony count ([1]; isolate ATCC 49226, 24 hr, 8X MIC): 0 CFU; Colony forming units (CFU) of N. gonorrhoeae internalised in HeLa229 cells, colony count ([1]; isolate NCTC 13820, 3 hr, 2X MIC): 12 CFU and 15 CFU and 33 CFU and 32 CFU and 27 CFU and 29 CFU; Colony forming units (CFU) of N. gonorrhoeae internalised in HeLa229 cells, colony count ([1]; isolate NCTC 13820, 3 hr, 4X MIC): 21 CFU and 16 CFU and 33 CFU and 30 CFU and 20 CFU and 27 CFU; Colony forming units (CFU) of N. gonorrhoeae internalised in HeLa229 cells, colony count ([1]; isolate NCTC 13820, 3 hr, 8X MIC): 20 CFU and 13 CFU and 26 CFU and 30 CFU (2×) and 21 CFU; Colony forming units (CFU) of N. gonorrhoeae internalised in HeLa229 cells, colony count ([1]; isolate NCTC 13820, 6 hr, 2X MIC): 0 CFU (2×) and 1 CFU (2×) and 3 CFU (2×); Colony forming units (CFU) of N. gonorrhoeae internalised in HeLa229 cells, colony count ([1]; isolate NCTC 13820, 6 hr, 4X MIC): 0 CFU (2×) and 1 CFU and 3 CFU |
| Nc1c2ccccc2nc2ccccc12 [9-Aminoacridine, reference compound] | – | – | – | – | – | – | – | – | – | – | – | – | – | – | Ames bacterial mutation assessment, Mean [2, 3]: 142; Colony count [2, 3]: 128 and 153 and 146 |
| Nc1ccc2cc3ccccc3cc2c1 [2-Aminoanthracene, reference compound] | – | – | – | – | – | – | – | – | – | – | – | – | – | – | Ames bacterial mutation assessment, Mean [2, 4]: 515; Colony count [2, 4]: 486 and 532 and 526; Ames bacterial mutation assessment, Mean [2, 5]: 1256; Colony count [2, 5]: 1316 and 1188 and 1256; Ames bacterial mutation assessment, Mean [2, 6]: 104; Colony count [2, 6]: 93 and 104 and 116; Ames bacterial mutation assessment, Mean [2, 7]: 95; Colony count [2, 7]: 90 and 94 and 102; Ames bacterial mutation assessment, Mean (E. coli WP2 uvrA): 187; Colony count (E. coli WP2 uvrA): 181 and 184 and 195 |
| Cc1oc2ccccc2c1CN(C)C(=O)/C=C/c1cnc2c(c1)NCCC(=O)N2 [Compound 5] | 1 (≈ 2.56 µM) | 1 (≈ 2.56 µM) | 1 (≈ 2.56 µM) | 1 (≈ 2.56 µM) | 0.5 (≈ 1.28 µM) | 2 (≈ 5.12 µM) | 2 (≈ 5.12 µM) | 2 (≈ 5.12 µM) | 0.5 (≈ 1.28 µM) | 1 (≈ 2.56 µM) | 2 (≈ 5.12 µM) | 1 (≈ 2.56 µM) | 1 (≈ 2.56 µM) | 0.5 (≈ 1.28 µM) | – |
| O=C1CCNc2cc(/C=C/C(=O)N3CCC=C(c4ccccc4)CC3)cnc2N1 [Compound 4] | 4 (≈ 10.3 µM) | 2 (≈ 5.15 µM) | 2 (≈ 5.15 µM) | 2 (≈ 5.15 µM) | 1 (≈ 2.57 µM) | 4 (≈ 10.3 µM) | 4 (≈ 10.3 µM) | 4 (≈ 10.3 µM) | 2 (≈ 5.15 µM) | 2 (≈ 5.15 µM) | 4 (≈ 10.3 µM) | 2 (≈ 5.15 µM) | 2 (≈ 5.15 µM) | 1 (≈ 2.57 µM) | – |
| O=C1CCNc2cc(C=CC(=O)N3CC4C=C(c5ccccc5)CC4C3)cnc2N1 (stereo not shown) [Compound 3] | 4 (≈ 9.99 µM) | 2 (≈ 4.99 µM) | 1 (≈ 2.5 µM) | 2 (≈ 4.99 µM) | 1 (≈ 2.5 µM) | 4 (≈ 9.99 µM) | 4 (≈ 9.99 µM) | 4 (≈ 9.99 µM) | 2 (≈ 4.99 µM) | 2 (≈ 4.99 µM) | >8 | 2 (≈ 4.99 µM) | 2 (≈ 4.99 µM) | 1 (≈ 2.5 µM) | – |
| O=[N+]([O-])c1ccc2c(c1)Cc1ccccc1-2 [2-Nitrofluorene, reference compound] | – | – | – | – | – | – | – | – | – | – | – | – | – | – | Ames bacterial mutation assessment, Mean [2, 22]: 173; Colony count [2, 22]: 177 and 172 and 169 |
| [N-]=[N+]=[N-].[Na+] [Sodium azide, reference compound] | – | – | – | – | – | – | – | – | – | – | – | – | – | – | Ames bacterial mutation assessment, Mean [2, 23]: 555; Colony count [2, 23]: 508 and 554 and 602; Ames bacterial mutation assessment, Mean [2, 24]: 433; Colony count [2, 24]: 428 and 408 and 464 |
| Cc1c(CN(C)C(=O)/C=C/c2cnc3c(c2)N[C@@H](C)[C@@H](O)C(=O)N3)oc2ccccc12 [Compound 9] | 2 (≈ 4.76 µM) | 1 (≈ 2.38 µM) | 1 (≈ 2.38 µM) | 1 (≈ 2.38 µM) | ≤0.5 | 2 (≈ 4.76 µM) | 2 (≈ 4.76 µM) | 2 (≈ 4.76 µM) | 1 (≈ 2.38 µM) | 1 (≈ 2.38 µM) | 2 (≈ 4.76 µM) | 1 (≈ 2.38 µM) | 1 (≈ 2.38 µM) | 1 (≈ 2.38 µM) | – |
